Results from patent publication US11273217B2, “Cancer treatment composition combining anti-CD26 antibody and other anticancer agent” (Y's AC Co., Ltd., priority 2015, dated 2022).

Experiments:
H226 = assay: In vivo growth of epithelioid mesothelioma cell H226 in SCID mice (tumor weight); settings: YS110 10 mg/kg, gemcitabine 20 mg/kg, intraperitoneal, days 2 and 4; day 7
Procedure: H226 (3.8×10^5 cells/animal) was subcutaneously transplanted to the backs of female SCID mice. The day of transplantation was defined as day 0. YS110 (10 mg/kg), gemcitabine (20 mg/kg), or YS110 (10 mg/kg)+gemcitabine (20 mg/kg) was intraperitoneally administered to the mice twice (days 2 and 4) (n=6). At day 7, their tumors were excised, and the tumor weights were measured. Significant difference was tested by two-tailed t-test (vs Cont). The interaction between YS110 and gemcitabine used concomitantly was analyzed by two-way ANOVA.

JMN cells [1] = assay: In vivo JMN cell growth in SCID mice (tumor weight); settings: YS110 10 mg/kg, intraperitoneal
H2452 cells = assay: Boyden chamber invasion assay, H2452; format: cell-based; settings: cisplatin 0, 3, or 10 μM and YS110 0, 10, or 20 μg/ml; 24 hours
Procedure: MESO1 cells or H2452 cells (2.5×10^4 cells/well) were inoculated to a Boyden chamber. One hour later, cisplatin (5, 10, or 30 μM) or pemetrexed (1, 10, or 30 μM) was added thereto (n=5), followed by Boyden chamber invasion assay. 24 hours after the cell inoculation, invasive cells were stained with Diff-Quik-staining kit. Significant difference was tested by two-tailed t-test (vs Cont).
(§1) MESO1 cells or H2452 cells (2.5×10^4 cells/well) were inoculated to a Boyden chamber. One hour later, the combination of cisplatin (0, 3, or 10 μM) and pemetrexed (0, 10, or 30 μM) was added thereto (n=5), followed by Boyden chamber invasion assay. 24 hours after the cell inoculation, invasive cells were stained with Diff-Quik-staining kit. Significant difference was tested by two-tailed t-test (vs Cont).
as §1, with “H2452” for “MESO1 cells or H2452”, “YS110” for “pemetrexed”, “20 μg/ml)” for “30 μM)”, “Cont). Next, the interaction of YS110 with cisplatin-pemetrexed concomitant use was studied. The interaction was analyzed by two-way ANOVA.” for “Cont).”

H226 cells = assay: MTT cell growth assay, H226; format: cell-based; settings: gemcitabine 10^−8, 3×10^−8, or 10^−7 M and YS110 1, 3, or 10 μg/ml; day 2
Procedure: (§2) Gemcitabine was studied for its effect on the growth of a mesothelioma cell line. A mesothelioma cell line MESO1, JMN, H2452, or H226 (2×10^3 cells/well) was inoculated to a 96-well plate. One hour later, gemcitabine (10^−9, 10^−8, 10^−7, 10^−6, 10^−5, or 10^−4 M) was added thereto (N=6). 2 days later, MTT assay was conducted. Significant difference was tested by two-tailed t-test (vs Cont).
(§3) H226 cells (2×10^3 cells/well) were inoculated to a 96-well plate. One hour later, gemcitabine (0, 10^−8, 3×10^−8, or 10^−7 M) and YS110 (0, 1, 3, or 10 μg/ml) were added thereto in combination. At day 2, MTT assay was conducted. Significant difference was tested by two-tailed t-test (vs Cont). Next, interaction in concomitant use of medications was studied (n=6). The interaction between YS110 and gemcitabine used concomitantly was analyzed by two-way ANOVA.
(§4) MESO1, JMN, H2452 or H226 cells (2×10^3 cells/well were inoculated to a 96-well plate. One hour later, 3×10^−8 M or 10^−7 M gemcitabine was added thereto by concomitant use with the combination of cisplatin (0, 0.1, 0.3, or 1 μM) and pemetrexed (0, 0.03, 0.1, or 0.3 μM) (n=6). At day 2, MTT assay was conducted.
(§5) The growth inhibitory effect of gemcitabine (10^−9 to 10^−4 M) was compared using MESO1, H2452, JMN, and H226 cell lines.

HCC4006 cells = assay: In vivo growth of CD26-positive lung cancer cell line HCC4006 in SCID mice (tumor weight); settings: YS110 10 mg/kg intraperitoneal, gefitinib 100 mg/kg oral, days 1 and 4; day 7
HCC827 cells = assay: In vivo growth of CD26-positive lung cancer cell line HCC827 in SCID mice (tumor weight); settings: days 1 and 4, day 7
Procedure: HCC827 cells (1.8×10^5 cells/animal) were subcutaneously transplanted to the backs of female SCID mice. The day of transplantation was defined as day 0. At day 1, YS110 (10 mg/kg) alone, cisplatin (0.5 mg/kg)+pemetrexed (50 mg/kg), or YS110 (10 mg/kg)+cisplatin (0.5 mg/kg)+pemetrexed (50 mg/kg) was intraperitoneally administered to the mice. At day 4, the same amount of the same drug was administered by the same method as in day 1 (n=6). At day 7, their tumors were excised, and the tumor weights were measured. Significant difference was tested by two-tailed t-test (vs Cont).
HCC827 cells (0.9×10^5 cells/animal) were subcutaneously transplanted to the backs of female SCID mice. The day of transplantation was defined as day 0. YS110 (10 mg/kg, intraperitoneal administration), gefitinib (100 mg/kg, oral administration), or YS110 (10 mg/kg, intraperitoneal administration)+gefitinib (100 mg/kg, oral administration) was administered to the mice twice (days 1 and 4). At day 7, their tumors were excised, and the tumor weights were measured. Significant difference was tested by two-tailed t-test (vs Cont).

JMN cells [2] = assay: MTT cell growth assay, JMN; format: cell-based; settings: gemcitabine 3×10^−10, 10^−9, or 3×10^−8 M and YS110 1, 3, or 10 μg/ml; day 2
Procedure: as §2
as §3, with “JMN” for “H226”, “3×10^−10, 10^−9,” for “10^−8, 3×10^−8,”, “3×10^−8” for “10^−7”
as §4
The growth inhibitory effects of cisplatin (10^−9 to 10^−4 M) and pemetrexed (10^−9 to 10^−4 M) were compared using the MESO1 and JMN cell lines.
as §5

[3] = in vivo; cited from earlier work

YS110: humanized anti-CD26 antibody designed based on anti-CD26 mouse antibody 14D10; SEQ ID NO: 17 and 18
inhibitory effect (tumor weight) (H226): 34%
effect of YS110 on the in vivo tumor growth inhibitory effect of cisplatin (JMN cells [1]; cisplatin 0.5 mg/kg, days 1 and 4, tumor weight day 7): potentiated
effect of YS110 on the in vivo tumor growth inhibitory effect of cisplatin-pemetrexed (JMN cells [1]; cisplatin 0.5 mg/kg, pemetrexed 50 mg/kg, days 1 and 4, tumor weight day 7): potentiated
inhibitory effect (tumor weight) (JMN cells [1]; gemcitabine 10 mg/kg, days 2 and 4, day 7): 34%
effect of YS110 on the in vivo tumor growth inhibitory effect of pemetrexed (JMN cells [1]; pemetrexed 50 mg/kg, days 1 and 4, tumor weight day 7): potentiated
effect of YS110 on the cell invasion inhibitory action of cisplatin-pemetrexed (H2452 cells): synergistically potentiated
effect of YS110 on the growth inhibitory effect of gemcitabine (H226 cells): potentiated
effect of YS110 on the effect of gefitinib (tumor weight) (HCC4006 cells): potentiated
effect of YS110 on the effect of gefitinib (tumor weight) (HCC827 cells; YS110 10 mg/kg intraperitoneal, gefitinib 100 mg/kg oral): potentiated
effect of YS110 on the effect of cisplatin-pemetrexed (tumor weight) (HCC827 cells; YS110 10 mg/kg, cisplatin 0.5 mg/kg, pemetrexed 50 mg/kg, intraperitoneal): potentiated
effect of YS110 on the growth inhibitory effect of gemcitabine (JMN cells [2]): potentiated
safety in phase I clinical trial [3]: demonstrated its safety
